ChEMBL document CHEMBL5375952, “Discovery of Novel 8-Hydroxyquinoline Derivatives with Potent In Vitro and In Vivo Antifungal Activity” (J Med Chem, 2023)
Values after ≈ are worked out from the molar mass of the structure shown.

Columns and labels:
[1] = test system: Candida albicans; assay: Antifungal activity against Candida albicans SC5314 assessed as fungal growth inhibition incubated for 48 hrs by broth microdilution method; type: functional
[2] = test system: Candida albicans; assay: Antifungal activity against Candida albicans 21 assessed as fungal growth inhibition incubated for 48 hrs by broth microdilution method; type: functional
[3] = test system: Candida albicans; assay: Antifungal activity against Candida albicans 22 assessed as fungal growth inhibition incubated for 48 hrs by broth microdilution method; type: functional
[4] = test system: Nakaseomyces glabratus; assay: Antifungal activity against Candida glabrata 201 assessed as fungal growth inhibition incubated for 48 hrs by broth microdilution method; type: functional
[5] = test system: Nakaseomyces glabratus; assay: Antifungal activity against Candida glabrata 202 assessed as fungal growth inhibition incubated for 48 hrs by broth microdilution method; type: functional
[6] = test system: Nakaseomyces glabratus; assay: Antifungal activity against Candida glabrata 205 assessed as fungal growth inhibition incubated for 48 hrs by broth microdilution method; type: functional
[7] = test system: Pichia kudriavzevii; assay: Antifungal activity against Candida krusei 68 assessed as fungal growth inhibition incubated for 48 hrs by broth microdilution method; type: functional
[8] = test system: Pichia kudriavzevii; assay: Antifungal activity against Candida krusei 69 assessed as fungal growth inhibition incubated for 48 hrs by broth microdilution method; type: functional
[9] = test system: Pichia kudriavzevii; assay: Antifungal activity against Candida krusei 477 assessed as fungal growth inhibition incubated for 48 hrs by broth microdilution method; type: functional
[10] = test system: Candida parapsilosis; assay: Antifungal activity against Candida parapsilosis 105 assessed as fungal growth inhibition incubated for 48 hrs by broth microdilution method; type: functional; conditions: Lodderomyces parapsilosis
[11] = test system: Candida parapsilosis; assay: Antifungal activity against Candida parapsilosis 107 assessed as fungal growth inhibition incubated for 48 hrs by broth microdilution method; type: functional; conditions: Lodderomyces parapsilosis
[12] = test system: Candida parapsilosis; assay: Antifungal activity against Candida parapsilosis 125 assessed as fungal growth inhibition incubated for 48 hrs by broth microdilution method; type: functional; conditions: Lodderomyces parapsilosis
[13] = test system: Candida tropicalis; assay: Antifungal activity against Candida tropicalis 176 assessed as fungal growth inhibition incubated for 48 hrs by broth microdilution method; type: functional
[14] = test system: Candida tropicalis; assay: Antifungal activity against Candida tropicalis 178 assessed as fungal growth inhibition incubated for 48 hrs by broth microdilution method; type: functional
[15] = test system: Candida tropicalis; assay: Antifungal activity against Candida tropicalis 184 assessed as fungal growth inhibition incubated for 48 hrs by broth microdilution method; type: functional
[16] = test system: Cryptococcus neoformans; assay: Antifungal activity against Cryptococcus neoformans 443 assessed as fungal growth inhibition incubated for 48 hrs by broth microdilution method; type: functional
[17] = test system: Cryptococcus neoformans; assay: Antifungal activity against Cryptococcus neoformans 444 assessed as fungal growth inhibition incubated for 48 hrs by broth microdilution method; type: functional
[18] = test system: Cryptococcus neoformans; assay: Antifungal activity against Cryptococcus neoformans 445 assessed as fungal growth inhibition incubated for 48 hrs by broth microdilution method; type: functional
[19] = test system: Aspergillus fumigatus; assay: Antifungal activity against Aspergillus fumigatus 023-12 assessed as fungal growth inhibition incubated for 48 hrs by broth microdilution method; type: functional
[20] = test system: Aspergillus fumigatus; assay: Antifungal activity against Aspergillus fumigatus A assessed as fungal growth inhibition incubated for 48 hrs by broth microdilution method; type: functional
[21] = test system: Aspergillus fumigatus; assay: Antifungal activity against Aspergillus fumigatus 7544 assessed as fungal growth inhibition incubated for 48 hrs by broth microdilution method; type: functional
[22] = Cytotoxicity against human Caco-2 cells assessed as cell growth inhibition incubated for 24 hrs by CCK8 assay; type: toxicity, cell-based

MIC [1] [µg/mL]	MIC [2] [µg/mL]	MIC [3] [µg/mL]	Compound	further results
4 (≈ 11.4 µM)	4 (≈ 11.4 µM)	4 (≈ 11.4 µM)	COc1ccc(C(NC(C)=O)c2ccc3cccnc3c2O)c(OC)c1 (stereo unspecified)	
2 (≈ 4.42 µM)	1 (≈ 2.21 µM)	2 (≈ 4.42 µM)	O=C(Cc1ccccc1)NC(c1ccc(OC(F)(F)F)cc1)c1ccc2cccnc2c1O (stereo unspecified)	
1 (≈ 2.75 µM)	1 (≈ 2.75 µM)	1 (≈ 2.75 µM)	OCCN1CCN(C(c2ccccc2)c2ccc3cccnc3c2O)CC1 (stereo unspecified)	
2 (≈ 5.01 µM)	0.5 (≈ 1.25 µM)	1 (≈ 2.5 µM)	CC(C)C(=O)NC(c1ccc(Br)cc1)c1ccc2cccnc2c1O (stereo unspecified)	
1 (≈ 3.12 µM)	1 (≈ 3.12 µM)	1 (≈ 3.12 µM)	CCCC(=O)NC(c1ccccc1)c1ccc2cccnc2c1O (stereo unspecified)	
1 (≈ 2.82 µM)	0.25 (≈ 0.705 µM)	0.5 (≈ 1.41 µM)	CC(C)C(=O)NC(c1ccc(Cl)cc1)c1ccc2cccnc2c1O (stereo unspecified)	
0.5 (≈ 1.24 µM)	1 (≈ 2.47 µM)	1 (≈ 2.47 µM)	CC(C)C(=O)NC(c1ccc(OC(F)(F)F)cc1)c1ccc2cccnc2c1O (stereo unspecified)	
1 (≈ 2.41 µM)	2 (≈ 4.82 µM)	4 (≈ 9.65 µM)	CSc1ccc(C(NC(=O)Cc2ccccc2)c2ccc3cccnc3c2O)cc1 (stereo unspecified)	
2 (≈ 5.98 µM)	1 (≈ 2.99 µM)	1 (≈ 2.99 µM)	Cc1ccc(C(NC(=O)C(C)C)c2ccc3cccnc3c2O)cc1 (stereo unspecified)	
0.125 (≈ 0.359 µM)	0.125 (≈ 0.359 µM)	0.125 (≈ 0.359 µM)	Cc1ccc(C(NC(=O)CC(C)C)c2ccc3cccnc3c2O)cc1 (stereo unspecified)	MIC [4]: 0.125 µg/mL (≈ 0.359 µM); MIC [5]: 0.125 µg/mL (≈ 0.359 µM); MIC [6]: 0.125 µg/mL (≈ 0.359 µM); MIC [7]: 0.125 µg/mL (≈ 0.359 µM); MIC [8]: 0.125 µg/mL (≈ 0.359 µM); MIC [9]: 0.125 µg/mL (≈ 0.359 µM); MIC [10]: 0.032 µg/mL (≈ 0.0918 µM); MIC [11]: 0.125 µg/mL (≈ 0.359 µM); MIC [12]: 0.125 µg/mL (≈ 0.359 µM); MIC [13]: 0.032 µg/mL (≈ 0.0918 µM); MIC [14]: 0.032 µg/mL (≈ 0.0918 µM); MIC [15]: 0.125 µg/mL (≈ 0.359 µM); MIC [16]: 0.016 µg/mL (≈ 0.0459 µM); MIC [17]: 0.016 µg/mL (≈ 0.0459 µM); MIC [18]: 0.016 µg/mL (≈ 0.0459 µM); MIC [19]: 0.25 µg/mL (≈ 0.717 µM); MIC [20]: 0.5 µg/mL (≈ 1.43 µM); MIC [21]: 0.5 µg/mL (≈ 1.43 µM); IC50 at 24 h [22]: 32 µg/mL (≈ 91.8 µM)
0.125 (≈ 0.314 µM)	< 0.125	0.125 (≈ 0.314 µM)	COc1ccccc1C(NC(=O)Cc1ccccc1)c1ccc2cccnc2c1O (stereo unspecified)	MIC [4]: 0.125 µg/mL (≈ 0.314 µM); MIC [5]: 0.125 µg/mL (≈ 0.314 µM); MIC [6]: 0.5 µg/mL (≈ 1.25 µM); MIC [7]: 0.125 µg/mL (≈ 0.314 µM); MIC [8]: 0.25 µg/mL (≈ 0.627 µM); MIC [9]: 0.25 µg/mL (≈ 0.627 µM); MIC [10]: 0.125 µg/mL (≈ 0.314 µM); MIC [11]: 0.125 µg/mL (≈ 0.314 µM); MIC [12]: 0.125 µg/mL (≈ 0.314 µM); MIC [13]: > 64 µg/mL; MIC [14]: > 64 µg/mL; MIC [15]: > 64 µg/mL; MIC [16]: 0.125 µg/mL (≈ 0.314 µM); MIC [17]: 0.125 µg/mL (≈ 0.314 µM); MIC [18]: 0.5 µg/mL (≈ 1.25 µM); MIC [19]: 2 µg/mL (≈ 5.02 µM); MIC [20]: 2 µg/mL (≈ 5.02 µM); MIC [21]: 2 µg/mL (≈ 5.02 µM); IC50 at 24 h [22]: > 64 µg/mL
0.25 (≈ 0.608 µM)	0.5 (≈ 1.22 µM)	2 (≈ 4.86 µM)	CN(C)c1ccc(C(NC(=O)Cc2ccccc2)c2ccc3cccnc3c2O)cc1 (stereo unspecified)	
> 64	64 (≈ 166 µM)	> 64	COc1ccccc1C(NC(=O)C(C)C)c1cc(Cl)c2cccnc2c1O (stereo unspecified)	
1 (≈ 2.59 µM)	0.5 (≈ 1.29 µM)	0.5 (≈ 1.29 µM)	CC(C)C(=O)NC(c1ccc(OC(F)F)cc1)c1ccc2cccnc2c1O (stereo unspecified)	
8 (≈ 24.5 µM)	8 (≈ 24.5 µM)	8 (≈ 24.5 µM)	CC(=O)NC(c1ccccc1Cl)c1ccc2cccnc2c1O (stereo unspecified)	
4 (≈ 11.9 µM)	8 (≈ 23.8 µM)	16 (≈ 47.6 µM)	CCC(=O)NC(c1ccccc1OC)c1ccc2cccnc2c1O (stereo unspecified)	
2 (≈ 4.41 µM)	0.25 (≈ 0.551 µM)	1 (≈ 2.2 µM)	CCN(CC)c1ccc(C(NC(=O)CCc2ccccc2)c2ccc3cccnc3c2O)cc1 (stereo unspecified)	
2 (≈ 4.47 µM)	1 (≈ 2.24 µM)	1 (≈ 2.24 µM)	O=C(Cc1ccccc1)NC(c1ccc(Br)cc1)c1ccc2cccnc2c1O (stereo unspecified)	
0.125 (≈ 0.346 µM)	0.5 (≈ 1.38 µM)	0.5 (≈ 1.38 µM)	CC(=O)NC(c1ccc(Cl)cc1Cl)c1ccc2cccnc2c1O (stereo unspecified)	
0.25 (≈ 0.688 µM)	0.25 (≈ 0.688 µM)	0.5 (≈ 1.38 µM)	CCCC(=O)NC(c1ccc(N(C)C)cc1)c1ccc2cccnc2c1O (stereo unspecified)	
0.5 (≈ 1.19 µM)	0.5 (≈ 1.19 µM)	1 (≈ 2.38 µM)	O=C(Cc1ccccc1)NC(c1ccc(F)c(Cl)c1)c1ccc2cccnc2c1O (stereo unspecified)	
0.5 (≈ 1.14 µM)	1 (≈ 2.29 µM)	1 (≈ 2.29 µM)	O=C(Cc1ccccc1)NC(c1ccc(Cl)c(Cl)c1)c1ccc2cccnc2c1O (stereo unspecified)	
0.5 (≈ 1.14 µM)	1 (≈ 2.28 µM)	2 (≈ 4.55 µM)	CCN(CC)c1ccc(C(NC(=O)Cc2ccccc2)c2ccc3cccnc3c2O)cc1 (stereo unspecified)	

MIC [1] [µg/mL]	MIC [2] [µg/mL]	MIC [3] [µg/mL]	Compound	further results
1 (≈ 2.74 µM)	1 (≈ 2.74 µM)	1 (≈ 2.74 µM)	CCCC(=O)NC(c1cccc([N+](=O)[O-])c1)c1ccc2cccnc2c1O (stereo unspecified)	
0.5 (≈ 1.27 µM)	0.5 (≈ 1.27 µM)	0.5 (≈ 1.27 µM)	COc1ccc(C(NC(=O)CC(C)C)c2ccc3cccnc3c2O)cc1OC (stereo unspecified)	
0.5 (≈ 1.34 µM)	0.25 (≈ 0.671 µM)	0.5 (≈ 1.34 µM)	CC(C)C(=O)NC(c1ccc(F)c(Cl)c1)c1ccc2cccnc2c1O (stereo unspecified)	
0.5 (≈ 1.56 µM)	0.5 (≈ 1.56 µM)	0.5 (≈ 1.56 µM)	CCC(=O)NC(c1ccc(C)cc1)c1ccc2cccnc2c1O (stereo unspecified)	
0.5 (≈ 1.29 µM)	1 (≈ 2.59 µM)	1 (≈ 2.59 µM)	O=C(Cc1ccccc1)NC(c1ccc(F)cc1)c1ccc2cccnc2c1O (stereo unspecified)	
1 (≈ 2.57 µM)	0.25 (≈ 0.642 µM)	1 (≈ 2.57 µM)	CC(C)C(=O)NC(c1ccc(Cl)c(Cl)c1)c1ccc2cccnc2c1O (stereo unspecified)	
2 (≈ 4.48 µM)	1 (≈ 2.24 µM)	2 (≈ 4.48 µM)	CS(=O)(=O)c1ccc(C(NC(=O)Cc2ccccc2)c2ccc3cccnc3c2O)cc1 (stereo unspecified)	
1 (≈ 2.29 µM)	1 (≈ 2.29 µM)	2 (≈ 4.58 µM)	O=C(Cc1ccccc1)NC(c1ccc(C(F)(F)F)cc1)c1ccc2cccnc2c1O (stereo unspecified)	
1 (≈ 2.96 µM)	1 (≈ 2.96 µM)	1 (≈ 2.96 µM)	CC(C)C(=O)NC(c1ccc(F)cc1)c1ccc2cccnc2c1O (stereo unspecified)	
0.25 (≈ 0.73 µM)	0.5 (≈ 1.46 µM)	0.125 (≈ 0.365 µM)	CC(=O)NC(c1ccc2ccccc2c1)c1ccc2cccnc2c1O (stereo unspecified)	
2 (≈ 4.96 µM)	0.25 (≈ 0.621 µM)	1 (≈ 2.48 µM)	O=C(Cc1ccccc1)NC(c1ccc(Cl)cc1)c1ccc2cccnc2c1O (stereo unspecified)	
2 (≈ 5.64 µM)	2 (≈ 5.64 µM)	2 (≈ 5.64 µM)	CC(C)C(=O)NC(c1ccccc1Cl)c1ccc2cccnc2c1O (stereo unspecified)	
0.5 (≈ 1.17 µM)	0.5 (≈ 1.17 µM)	0.5 (≈ 1.17 µM)	COc1ccc(C(NC(=O)Cc2ccccc2)c2ccc3cccnc3c2O)cc1OC (stereo unspecified)	
1 (≈ 2.57 µM)	1 (≈ 2.57 µM)	2 (≈ 5.15 µM)	CC(C)C(=O)NC(c1ccc(C(F)(F)F)cc1)c1ccc2cccnc2c1O (stereo unspecified)	
1 (≈ 2.3 µM)	0.5 (≈ 1.15 µM)	0.5 (≈ 1.15 µM)	O=C(Cc1ccccc1)NC(c1ccc(OC(F)F)cc1)c1ccc2cccnc2c1O (stereo unspecified)	
2 (≈ 5.46 µM)	1 (≈ 2.73 µM)	2 (≈ 5.46 µM)	CSc1ccc(C(NC(=O)C(C)C)c2ccc3cccnc3c2O)cc1 (stereo unspecified)	
4 (≈ 11.4 µM)	4 (≈ 11.4 µM)	4 (≈ 11.4 µM)	CCC(=O)NC(c1cccc([N+](=O)[O-])c1)c1ccc2cccnc2c1O (stereo unspecified)	
0.25 (≈ 0.684 µM)	0.25 (≈ 0.684 µM)	0.5 (≈ 1.37 µM)	CC(C)C(=O)NC(c1cccc([N+](=O)[O-])c1)c1ccc2cccnc2c1O (stereo unspecified)	
2 (≈ 5.71 µM)	0.5 (≈ 1.43 µM)	1 (≈ 2.85 µM)	COc1ccc(C(NC(=O)C(C)C)c2ccc3cccnc3c2O)cc1 (stereo unspecified)	
2 (≈ 5.02 µM)	2 (≈ 5.02 µM)	1 (≈ 2.51 µM)	CC(C)C(=O)NC(c1ccc(S(C)(=O)=O)cc1)c1ccc2cccnc2c1O (stereo unspecified)	
4 (≈ 12 µM)	4 (≈ 12 µM)	4 (≈ 12 µM)	CN1CCN(C(c2ccncc2)c2ccc3cccnc3c2O)CC1 (stereo unspecified)	
2 (≈ 5.02 µM)	0.5 (≈ 1.25 µM)	1 (≈ 2.51 µM)	COc1ccc(C(NC(=O)Cc2ccccc2)c2ccc3cccnc3c2O)cc1 (stereo unspecified)	
1 (≈ 2.61 µM)	0.25 (≈ 0.654 µM)	1 (≈ 2.61 µM)	Cc1ccc(C(NC(=O)Cc2ccccc2)c2ccc3cccnc3c2O)cc1 (stereo unspecified)	
